Earlier results in paper PMC11891579, “Fluorescent PyrAte-(S)-citalopram conjugates enable imaging of the serotonin transporter in living tissue” (Chemical Science, 2025).

Tested on: organic cation transporter 3 (OCT3)
Design: method as in PMID 34884800
Details: cited from earlier work

Question: For `CN(C)CCC[C@@]1(c2ccc(F)cc2)OCc2cc(C#N)ccc21` [(S)-citalopram], which “affinity towards OCT3” value is on record?
Answer: does not display affinity towards OCT3
